Assay results from patent publication US20230000876A1, “TREATING CANCERS WITH A CYCLIN-DEPENDENT KINASE INHIBITOR” (Nuvation Bio Inc., priority 2021, published 2023).

How the values were obtained:
SK-MEL-24 = assay: Cell viability assay, melanoma cell line SK-MEL-24; type: cell-based
Procedure: (§1) 4.4.4 Compound Plate (10×) Preparation and Compound Treatment • 10× concentrate compound plate preparation: Add 198 μL of assay medium into each well of the V-bottom plate; then transfer 2 μL of the stock compound solution of each concentration from the stock plate. Add 2 μL of DMSO into the Blank and Control wells. Pipette up and down to mix well. This V-plate is designated as the 10× concentrate compound plate. • For day 0 plate, add 15 μL of the DMSO-medium into the Control wells. The final DMSO concentration was 0.1%. Then directly proceed to cell viability assay. • For assay plate, add 15 μL of the compound-medium of each well from the 10× concentrate compound plate into the cells in 96-well assay plate according to the plate map. Add 15 μL of the DMSO-medium into the Blank and Control wells. The final DMSO concentration was 0.1%. • Return the assay plate into incubator and incubate for 6 days.
(§2) The procedures were performed according to the Promega CellTiter-Glo Luminescent Cell Viability Assay Kit manual (Promega-G7573). • The CellTiter-Glo buffer was thawed and equilibrated to room temperature prior to use. • CellTiter-Glo Substrate was equilibrated to room temperature prior to use. • The entire liquid volume of CellTiter-Glo Buffer was transferred into the amber bottle containing CellTiter-Glo Substrate to reconstitute the lyophilized enzyme/substrate mixture. […] Plates were covered with aluminum foil to protect from light. • The contents were mixed for 2 minutes on an orbital shaker to induce cell lysis. • The plate was incubated at room temperature for 20 minutes to stabilize luminescent signal. • Record luminescence on the 2104 EnVision plate reader.
(§3) Inhibition rate (IR) of the tested compounds was determined by the following formula: IR (%)=(1−(RLU compound−RLU day0)/(RLU control−RLU day0))*100%. The inhibitions of different dose of compound were calculated in Excel file, and then were used to plot inhibition curves and evaluate related parameters, such as Min (%), Max (%) and GI50. […]

COLO 829 = assay: Cell viability assay, melanoma cell line COLO 829; type: cell-based
Procedure: as §1, §2, §3

22Rv1 tumors = assay: 22Rv1 prostate tumor model (Example 3); type: in vivo, male Balb/c nude mice; settings: for T/C / TGI: PG-D24
Procedure: The in vivo anti-tumor efficacy of the compound of formula (I) either alone or in combination with enzalutamide prostate tumor model on male Balb/c nude mice was evaluated. The cell line is derived from a xenograft that was serially propagated in mice after castration—induced regression and relapse of the parental, androgen-dependent CWR22 xenograft.
In the study, the compound of formula (I) was dosed orally (po) once daily (QD) and enzalutamide, when administered, was dosed orally once daily for 25 days, as shown in Table 8.
The 22Rv1 tumor cells were maintained in vitro in RPMI1640 medium supplemented with 10% heat inactivated fetal bovine serum at 37° C. in an atmosphere of 5% CO2 in air. The tumor cells were routinely subcultured twice weekly. The cells growing in an exponential growth phase were harvested and counted for tumor inoculation.
Each mouse was inoculated subcutaneously at the right flank with 22Rv1 tumor cells (5*10^6) with 50% Matrigel for tumor development. The treatments were started on day 7 after tumor inoculation when the average tumor volume reached 94 mm^3. A total of 48 mice were selected and assigned into 6 groups. The testing articles were administrated to the mice according to Table 8.
The major endpoint was to see if the tumor growth could be delayed or mice could be cured. Tumor size was measured twice weekly in two dimensions using a caliper, and the volume was expressed in mm^3 using the formula: V=0.5 a×b^2 where a and b are the long and short diameters of the tumor, respectively. The tumor sizes are then used for the calculation of T/C and TGI values.
The T/C value (in percent) is an indication of antitumor effectiveness; T and C are the mean volume of the treated and control groups, respectively, on a given day.
TGI was calculated for each group using the formula: TGI (%)=[1−(Ti−T0)/(Vi−V0)]×100; Ti is the average tumor volume of a treatment group on PG-Di, T0 is the average tumor volume of the treatment group on the day of treatment start, Vi is the average tumor volume of the vehicle control group on the same day with Ti, and V0 is the average tumor volume of the vehicle group on the day of treatment start.
All groups were taken down on PG-D24 and PG-D25 when the average tumor size of vehicle group reached 2305 mm^3.
Summary statistics, including mean and the standard error of the mean (SEM), are provided for the tumor volume of each group at each time point. For comparison among groups, a one-way ANOVA was performed. All the analysis were conducted using GraphPad Prism software. p<0.05 was considered to be statistically significant.

VCap prostate cancer = assay: Non-castrated VCap prostate cancer model; type: in vivo, male CB17/Scid mice
Procedure: Compound (I), enzalutamide, and abiraterone were tested in non-castrated VCap prostate cancer model in male CB17/Scid mice.
All treatment groups reduced mean tumor volume.

Q: With `CC(C)N1CCOc2c(F)cc(-c3nc(Nc4ccc(C5CCN(C)CC5)cn4)ncc3F)cc21` [Compound (I), 5-fluoro-4-(8-fluoro-4-isopropyl-3,4-dihydro-2H-benzo[b][1,4]oxazin-6-yl)-N-(5-(1-methylpiperidin-4-yl)pyridin-2-yl)pyrimidin-2-amine] as the molecule, how does the GI50 (SK-MEL-24; Homo sapiens, SK-MEL-24, read-out: Absolute GI50) read?
A: 151 nM

Q: And the “Max (%)” value (SK-MEL-24; inhibition rate)?
A: 113.43%

Q: What about the “Min (%)” value (SK-MEL-24; inhibition rate) of the same molecule?
A: 1.36%

Q: What about the GI50 (COLO 829; Homo sapiens, COLO-829, read-out: Absolute GI50) of the same molecule?
A: 875 nM

Q: What about the “Max (%)” value (COLO 829; inhibition rate) of the same molecule?
A: 107.94%

Q: What about the “Min (%)” value (COLO 829; inhibition rate) of the same molecule?
A: −3.11%

Q: What about the T/C (22Rv1 tumors; 10 mg/kg QD) of the same molecule?
A: 61.13%

Q: And the TGI (22Rv1 tumors; 10 mg/kg QD)?
A: 40.49%

Q: And the T/C (22Rv1 tumors; Compound (I) 30 mg/kg QD)?
A: 28.34%

Q: What about the TGI (22Rv1 tumors; Compound (I) 30 mg/kg QD) of the same molecule?
A: 74.71%

Q: And the “Tumor volume (mean ± SEM)” value (22Rv1 tumors; Group 3, 10 mg/kg PO QD, day 0)?
A: 94 ± 5 mm^3

Q: What about the “Tumor volume (mean ± SEM)” value (22Rv1 tumors; Group 3, 10 mg/kg PO QD, day 3) of the same molecule?
A: 154 ± 12 mm^3

Q: What about the “Tumor volume (mean ± SEM)” value (22Rv1 tumors; Group 3, 10 mg/kg PO QD, day 7) of the same molecule?
A: 257 ± 28 mm^3

Q: What about the “Tumor volume (mean ± SEM)” value (22Rv1 tumors; Group 3, 10 mg/kg PO QD, day 10) of the same molecule?
A: 378 ± 40 mm^3

Q: And the “Tumor volume (mean ± SEM)” value (22Rv1 tumors; Group 3, 10 mg/kg PO QD, day 14)?
A: 598 ± 58 mm^3

Q: And the “Tumor volume (mean ± SEM)” value (22Rv1 tumors; Group 3, 10 mg/kg PO QD, day 17)?
A: 825 ± 87 mm^3

Q: What about the “Tumor volume (mean ± SEM)” value (22Rv1 tumors; Group 3, 10 mg/kg PO QD, day 21) of the same molecule?
A: 1152 ± 114 mm^3

Q: What about the “Tumor volume (mean ± SEM)” value (22Rv1 tumors; Group 3, 10 mg/kg PO QD, day 24) of the same molecule?
A: 1409 ± 102 mm^3

Q: What about the “Tumor volume (mean ± SEM)” value (22Rv1 tumors; Group 4, 30 mg/kg PO QD, day 0) of the same molecule?
A: 94 ± 4 mm^3

Q: And the “Tumor volume (mean ± SEM)” value (22Rv1 tumors; Group 4, 30 mg/kg PO QD, day 3)?
A: 131 ± 13 mm^3

Q: What about the “Tumor volume (mean ± SEM)” value (22Rv1 tumors; Group 4, 30 mg/kg PO QD, day 7) of the same molecule?
A: 165 ± 25 mm^3

Q: What about the “Tumor volume (mean ± SEM)” value (22Rv1 tumors; Group 4, 30 mg/kg PO QD, day 10) of the same molecule?
A: 188 ± 30 mm^3

Q: And the “Tumor volume (mean ± SEM)” value (22Rv1 tumors; Group 4, 30 mg/kg PO QD, day 14)?
A: 289 ± 40 mm^3

Q: What about the “Tumor volume (mean ± SEM)” value (22Rv1 tumors; Group 4, 30 mg/kg PO QD, day 17) of the same molecule?
A: 398 ± 60 mm^3

Q: And the “Tumor volume (mean ± SEM)” value (22Rv1 tumors; Group 4, 30 mg/kg PO QD, day 21)?
A: 546 ± 67 mm^3

Q: What about the “Tumor volume (mean ± SEM)” value (22Rv1 tumors; Group 4, 30 mg/kg PO QD, day 24) of the same molecule?
A: 653 ± 64 mm^3

Q: What about the “Tumor volume (mean ± SEM)” value (VCap prostate cancer; Group 3: Compound (I) 10 mg/kg p.o. QD * 26 days, Day 0) of the same molecule?
A: 171.8 ± 6 mm^3

Q: And the “Tumor volume (mean ± SEM)” value (VCap prostate cancer; Group 3: Compound (I) 10 mg/kg p.o. QD * 26 days, Day 4)?
A: 221.9 ± 15.2 mm^3

Q: And the “Tumor volume (mean ± SEM)” value (VCap prostate cancer; Group 3: Compound (I) 10 mg/kg p.o. QD * 26 days, Day 7)?
A: 260.9 ± 13.8 mm^3

Q: What about the “Tumor volume (mean ± SEM)” value (VCap prostate cancer; Group 3: Compound (I) 10 mg/kg p.o. QD * 26 days, Day 11) of the same molecule?
A: 310.5 ± 19.9 mm^3

Q: And the “Tumor volume (mean ± SEM)” value (VCap prostate cancer; Group 3: Compound (I) 10 mg/kg p.o. QD * 26 days, Day 14)?
A: 381.2 ± 15.4 mm^3

Q: And the “Tumor volume (mean ± SEM)” value (VCap prostate cancer; Group 3: Compound (I) 10 mg/kg p.o. QD * 26 days, Day 18)?
A: 420.6 ± 20.2 mm^3

Q: What about the “Tumor volume (mean ± SEM)” value (VCap prostate cancer; Group 3: Compound (I) 10 mg/kg p.o. QD * 26 days, Day 21) of the same molecule?
A: 514.2 ± 16.5 mm^3

Q: What about the “Tumor volume (mean ± SEM)” value (VCap prostate cancer; Group 3: Compound (I) 10 mg/kg p.o. QD * 26 days, Day 25) of the same molecule?
A: 596.9 ± 22.9 mm^3

Q: What about the “Tumor volume (mean ± SEM)” value (VCap prostate cancer; Group 4: Compound (I) 30 mg/kg p.o. QD * 26 days, Day 0) of the same molecule?
A: 171.7 ± 6.1 mm^3

Q: What about the “Tumor volume (mean ± SEM)” value (VCap prostate cancer; Group 4: Compound (I) 30 mg/kg p.o. QD * 26 days, Day 4) of the same molecule?
A: 218.9 ± 14.4 mm^3

Q: And the “Tumor volume (mean ± SEM)” value (VCap prostate cancer; Group 4: Compound (I) 30 mg/kg p.o. QD * 26 days, Day 7)?
A: 233.4 ± 16.4 mm^3

Q: And the “Tumor volume (mean ± SEM)” value (VCap prostate cancer; Group 4: Compound (I) 30 mg/kg p.o. QD * 26 days, Day 11)?
A: 253.7 ± 20.6 mm^3

Q: What about the “Tumor volume (mean ± SEM)” value (VCap prostate cancer; Group 4: Compound (I) 30 mg/kg p.o. QD * 26 days, Day 14) of the same molecule?
A: 279.1 ± 23.6 mm^3

Q: And the “Tumor volume (mean ± SEM)” value (VCap prostate cancer; Group 4: Compound (I) 30 mg/kg p.o. QD * 26 days, Day 18)?
A: 259.2 ± 23.5 mm^3

Q: And the “Tumor volume (mean ± SEM)” value (VCap prostate cancer; Group 4: Compound (I) 30 mg/kg p.o. QD * 26 days, Day 21)?
A: 235.9 ± 18.3 mm^3

Q: And the “Tumor volume (mean ± SEM)” value (VCap prostate cancer; Group 4: Compound (I) 30 mg/kg p.o. QD * 26 days, Day 25)?
A: 232.9 ± 21.3 mm^3

Q: What about the Antitumor effect (VCap prostate cancer; compound (I) 30 mg/kg PO QD, enzalutamide 20 mg/kg PO QD) of the same molecule?
A: greatest inhibition of tumor growth
